Where only a bound is given, the exact number is not on record here.

The test deals with T1, human vasopressin V1b receptor (Homo sapiens, UniProt P47901).
T1 construct: expressed in transfected cells; host or cells: CHO-K1 (cell line hV1b-3H2_CHO), membrane preparation
T1 sequence (P47901 1-424): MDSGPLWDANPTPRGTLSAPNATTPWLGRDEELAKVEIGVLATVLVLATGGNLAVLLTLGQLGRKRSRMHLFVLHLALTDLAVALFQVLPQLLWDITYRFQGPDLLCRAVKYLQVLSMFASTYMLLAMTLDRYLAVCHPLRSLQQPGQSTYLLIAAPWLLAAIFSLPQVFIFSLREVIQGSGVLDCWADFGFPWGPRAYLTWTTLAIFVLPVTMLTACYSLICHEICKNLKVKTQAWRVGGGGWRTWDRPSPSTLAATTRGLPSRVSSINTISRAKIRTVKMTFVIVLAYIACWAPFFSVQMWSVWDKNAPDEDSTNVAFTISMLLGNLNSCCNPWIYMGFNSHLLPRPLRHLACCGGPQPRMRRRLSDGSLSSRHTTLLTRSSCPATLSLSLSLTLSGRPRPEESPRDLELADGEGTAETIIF
Briefly: Vasopressin V1b receptor binding assay. The conditions noted are these: membranes from CHO-K1 cells with stably expressed human V1b receptors, 1.5 nM 3H-AVP displacement; with more than one stereogenic center: the diastereomer with stronger affinity. The procedure, abridged:
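Membranes bearing human V1b receptor incubated 60 min at room temperature in 50 mM Tris, 10 mM MgCl2, 0.1% BSA, pH 7.4, 2% DMSO, triplicate.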
Usually Ki stands for a dissociation constant, usually derived from enzyme kinetics or from competition with a known ligand. Read a high Ki as a looser hold on the target. `CCOc1cc(F)ccc1C1(N2CCN(c3ccnc(C(C)C)c3)CC2)C(=O)N(S(=O)(=O)c2ccc(OC)cn2)c2ccc(C#N)cc21` (racemic) [Example 153, (±)-5-Cyano-3-(2-ethoxy-4-fluoro-phenyl)-3-[4-(2-isopropyl-pyridin-4-yl)-piperazin-1-yl]-1-(5-methoxy-pyridine-2-sulfonyl)-2,3-dihydro-1H-indol-2-one] displayed a Ki below 10 nM.

`CCOc1ccccc1C1(N2CCN(c3ccncc3)CC2)C(=O)N(S(=O)(=O)c2cccc3c(C)ccnc23)c2ccc(C#N)cc21` (single isomer, unassigned; (+)) [Example 63, (+)-5-Cyano-3-(2-ethoxyphenyl)-1-(4-methylquinoline-8-sulfonyl)-3-(4-pyridin-4-yl-piperazin-1-yl)-2,3-dihydro-1H-indol-2-one]: the inhibitory constant (Ki) was below 10 nM.

`CCOc1ccccc1C1(N2CCN(c3ccncc3)CC2)C(=O)N(S(=O)(=O)c2ccc(Cl)c3cccnc23)c2ccc(C#N)cc21` (racemic) [Example 12, (±)-5-Cyano-1-(5-chloroquinoline-8-sulfonyl)-3-(2-ethoxyphenyl)-3-(4-pyridin-4-yl-piperazin-1-yl)-2,3-dihydro-1H-indol-2-one]: the inhibitory constant (Ki) lay in the range of 10 to 50 nM.

As for `CCOc1ccc(OC)cc1C1(N2CCCN(c3ccnc(C)c3)CC2)C(=O)N(S(=O)(=O)c2ccc(OC)c3cccnc23)c2ccc(C#N)cc21` (racemic) [Example 73, (±)-5-Cyano-3-(2-ethoxy-5-methoxyphenyl)-1-(5-methoxyquinoline-8-sulfonyl)-3-[4-(2-methylpyridin-4-yl)-[1,4]diazepan-1-yl]-2,3-dihydro-1H-indol-2-one], the inhibitory constant (Ki) was below 10 nM.

Consider `CCOc1nc(Cl)ccc1C1(N2CC3CC2CN3c2ccncc2)C(=O)N(S(=O)(=O)c2ccc(OC)cn2)c2ccc(C#N)cc21` (racemic) [Example 155, (±)-5-Cyano-3-(6-chloro-2-ethoxy-pyridin-3-yl)-1-(5-methoxy-pyridine-2-sulfonyl)-3-((1S,4S)-5-pyridin-4-yl-2,5-diaza-bicyclo[2.2.1]hept-2-yl)-2,3-dihydro-1-2-one], for which the Ki was 10 to 50 nM.

`CCOc1ccccc1C1(N2CCN(c3ccncc3)CC2)C(=O)N(S(=O)(=O)c2ccc(OC)c3cccnc23)c2ccc(C#N)cc21` (racemic) [Example 25, (±)-5-Cyano-3-(2-ethoxyphenyl)-1-(5-methoxyquinoline-8-sulfonyl)-3-(4-pyridin-4-yl-piperazin-1-yl)-2,3-dihydro-1H-indol-2-one] yielded a Ki below 10 nM.

Compound `CCOc1nc(Cl)ccc1C1(N2CCN(C3CCNCC3)CC2)C(=O)N(S(=O)(=O)c2ccc(OC)cn2)c2ccc(C#N)cc21` (racemic) [Example 176, (±)-5-Cyano-3-(6-chloro-2-ethoxy-pyridin-3-yl)-1-(5-methoxy-pyridine-2-sulfonyl-3-(4-piperidin-4-yl-piperazin-1-yl)-2,3-dihydro-1H-indol-2-one] yielded a Ki below 10 nM.

As for `CCOc1ccccc1C1(N2CCN(c3ccncc3)CC2)C(=O)N(S(=O)(=O)c2ccc(F)c3cccnc23)c2ccc(C#N)cc21` (racemic) [Example 26, (±)-5-Cyano-3-(2-ethoxyphenyl)-1-(5-fluoroquinoline-8-sulfonyl)-3-(4-pyridin-4-yl-piperazin-1-yl)-2,3-dihydro-1H-indol-2-one], the inhibitory constant (Ki) is 10 to 50 nM.

`CCOc1ccccc1C1(N2CCN(c3ccncc3)CC2)C(=O)N(S(=O)(=O)c2ccc(C)cn2)c2ccc(C#N)cc21` (racemic) [Example 11, (±)-5-Cyano-3-(2-ethoxyphenyl)-1-(5-methylpyridine-2-sulfonyl)-3-(4-pyridin-4-yl-piperazin-1-yl)-2,3-dihydro-1H-indol-2-one] gave a Ki of 10 to 50 nM.

Compound `Cc1cccnc1C1(N2CCN(c3ccncc3)CC2)C(=O)N(S(=O)(=O)c2cccc3cccnc23)c2ccc(Cl)cc21` (racemic) [Example 9, (±)-5-Chloro-3-(3-methylpyridin-2-yl)-3-(4-pyridin-4-ylpiperazin-1-yl)-1-(quinoline-8-sulfonyl)-1,3-dihydroindol-2-one] yielded an inhibition constant Ki of 10 to 50 nM.

`CCOc1ccccc1C1(N2CCN(c3ccnc(C(C)C)c3)CC2)C(=O)N(S(=O)(=O)c2ccc(OC)cn2)c2ccc(C#N)cc21` (racemic) [Example 150, (±)-5-Cyano-3-(2-ethoxy-phenyl)-3-[4-(2-isopropyl-pyridin-4-yl)-piperazin-1-yl]-1-(5-methoxy-pyridine-2-sulfonyl)-2,3-dihydro-1H-indol-2-one] registered a Ki of 10 to 50 nM.

In turn, “(±)-5-Cyano-3-(6-chloro-2-ethoxypyridin-3-yl)-1-(2,4-dimethoxybenzenesulfonyl)-3-[4-(2-methylpyridin-4-yl)piperazin-1-yl]-2,3-dihydro-1H-indol-2-one [Example 28]” displayed an inhibition constant (Ki) of 10 to 50 nM.

For the compound `CCOc1cc(F)ccc1C1(N2CCN(c3ccncc3)CC2)C(=O)N(S(=O)(=O)c2cccc3cccnc23)c2ccc(C#N)cc21` (racemic) [Example 46, (±)-5-Cyano-3-(2-ethoxy-4-fluorophenyl)-3-(4-pyridin-4-ylpiperazin-1-yl)-1-(quinoline-8-sulfonyl)-2,3-dihydro-1H-indol-2-one], the Ki was 10 to 50 nM.

For the compound `CCOc1ccc(CC)cc1C1(N2CCN(c3ccnc(C)c3)CC2)C(=O)N(S(=O)(=O)c2ccc(OC)c3cccnc23)c2ccc(C#N)cc21` (racemic) [Example 160, (±)-5-Cyano-3-(2-ethoxy-5-ethyl-phenyl)-1-(5-methoxy-quinoline-8-sulfonyl)-3-[4-(2-methyl-pyridin-4-yl)-piperazin-1-yl]-2,3-dihydro-1H-indol-2-one], the inhibition constant (Ki) is below 10 nM.

As to `CCOc1ccc(OC)cc1C1(N2CCN(c3ccncc3)CC2)C(=O)N(S(=O)(=O)c2ccc(OC)c3cccnc23)c2ccc(C#N)cc21` (racemic) [Example 80, (±)-5-Cyano-3-(2-ethoxy-5-methoxyphenyl)-1-(5-methoxyquinoline-8-sulfonyl)-3-(4-pyridin-4-ylpiperazin-1-yl)-2,3-dihydro-1H-indol-2-one], the Ki is below 10 nM.

In turn, `CCOc1ccc(OC)cc1C1(N2C[C@@H]3C[C@H]2CN3c2ccncc2)C(=O)N(S(=O)(=O)c2ccc(C)cn2)c2ccc(C#N)cc21` (mixture of isomers) [Example 20, (±)-5-Cyano-3-(2-ethoxy-5-methoxyphenyl)-1-(5-methylpyridine-2-sulfonyl)-3-((1S, 4S)-5-pyridin-4-yl-2,5-diazabicyclo[2.2.1]hept-2-yl)-2,3-dihydro-1H-indol-2-one] returned an inhibition constant (Ki) of 10 to 50 nM.

`CCOc1cc(OC)ccc1C1(N2CCN(c3ccnc(C)c3)CC2)C(=O)N(S(=O)(=O)c2ccc(OC)cn2)c2ccc(C#N)cc21` (racemic) [Example 178, (±)-5-Cyano-3-(2-ethoxy-4-methoxy-phenyl)-1-(5-methoxy-pyridine-2-sulfonyl)-3-[4-(2-methyl-pyridin-4-yl)-piperazin-1-yl]-2,3-dihydro-1H-indol-2-one] had a Ki of 10 to 50 nM.

Consider `CCOc1c(OC)cccc1C1(N2CCN(c3ccnc(C)c3)CC2)C(=O)N(S(=O)(=O)c2ccc(OC)cn2)c2ccc(C#N)cc21` (racemic) [Example 179, (±)-5-Cyano-3-(2-ethoxy-3-methoxy-phenyl)-1-(5-methoxy-pyridine-2-sulfonyl)-3-[4-(2-methyl-pyridin-4-yl)-piperazin-1-yl]-2,3-dihydro-1H-indol-2-one], for which the inhibitory constant (Ki) is below 10 nM.

`CCOc1ccccc1C1(N2CCN(c3ccncc3)CC2)C(=O)N(S(=O)(=O)c2cccc3c(C)ccnc23)c2ccc(C#N)cc21` (racemic) [Example 16, (±)-5-Cyano-3-(2-ethoxyphenyl)-1-(4-methylquinoline-8-sulfonyl)-3-(4-pyridin-4-yl-piperazin-1-yl)-2,3-dihydro-1H-indol-2-one]: the Ki is below 10 nM.

`CCOc1ccc(OC)cc1C1(N2CCN(c3ccncc3)CC2)C(=O)N(S(=O)(=O)c2cccc3cccnc23)c2ccc(C#N)cc21` (racemic) [Example 13, (±)-5-Cyano-3-(2-ethoxy-5-methoxyphenyl)-3-(4-pyridin-4-yl-piperazin-1-yl)-1-(quinoline-8-sulfonyl)-2,3-dihydro-1H-indol-2-one] registered an inhibition constant Ki below 10 nM.

In the case of `COc1nc(Cl)ccc1C1(N2CCN(c3ccncc3)CC2)C(=O)N(S(=O)(=O)c2cccc3cccnc23)c2ccc(Cl)cc21` (racemic) [Example 10, (±)-5-Chloro-3-(6-chloro-2-methoxypyridin-3-yl)-3-(4-pyridin-4-ylpiperazin-1-yl)-1-(quinoline-8-sulfonyl)-1,3-dihydroindol-2-one], the inhibitory constant (Ki) is below 10 nM.

As for `CCOc1nc(Cl)ccc1C1(N2CCN(c3ccnc(C)c3)CC2)C(=O)N(S(=O)(=O)c2ccc(OC)cn2)c2ccc(C#N)cc21` (single isomer, unassigned; (+)) [Example 151, (+)-5-Cyano-3-(6-chloro-2-ethoxy-pyridin-3-yl)-1-(5-methoxy-pyridine-2-sulfonyl)-3-[4-(2-methyl-pyridin-4-yl)-piperazin-1-yl]-2,3-dihydro-1H-indol-2-one], the Ki is below 10 nM.

The compound `CCOc1ccc(OC)cc1C1(N2CCC(N3CCNCC3)CC2)C(=O)N(S(=O)(=O)c2ccc(OC)cn2)c2ccc(C#N)cc21` (racemic) [Example 86, (±)-5-Cyano-3-(2-ethoxy-5-methoxyphenyl)-1-(5-methoxypyridine-2-sulfonyl)-3-(4-piperazin-1-ylpiperidin-1-yl)-2,3-dihydro-1H-indol-2-one] came in with a Ki below 10 nM.

The record behind these values is patent publication US8486931B2, “Substituted oxindole compounds” (Abbott GmbH & Co. KG, priority 2007, dated 2013).
